From PMC11859184, “Synthesis and Evaluation of ^68Ga- and ^177Lu-Labeled [diF-Pro^14]Bombesin(6−14) Analogs for Detection and Radioligand Therapy of Gastrin-Releasing Peptide Receptor-Expressing Cancer” (Pharmaceuticals, 2025)
Read-outs that look alike come from different tables or passages of the source.

Test: Ex vivo biodistribution of 177Lu-labeled ligands in PC-3 tumor-bearing mice
Conditions: mouse, intravenous; for tissue uptake at 1 h: 1 h pi; for tissue uptake at 4 h: 4 h pi; for tissue uptake at 24 h: 24 h pi; for tissue uptake at 72 h: 72 h pi
Description: SPECT/CT imaging was conducted using an MI Labs (Houten, The Netherlands) U-SPECT-II/CT scanner with a custom-made ultra-high sensitivity big mouse collimator (2 mm pinhole size) following published procedure. The experiments were obtained in accordance with the same protocol established in the PET/CT imaging and ex vivo biodistributions section. The mice were used for SPECT/CT imaging and ex vivo biodistributions studies once the tumors reached a diameter of 5–8 mm. PC-3 tumor-bearing mice were sedated (2.5% isoflurane in O2) and injected with 31.4–36.9 MBq of the ^177Lu-labeled ligand through a lateral caudal tail vein. The mouse was imaged at 1, 4, 24, 72, and 120 h pi. At each time point, a 5 min CT scan was performed with 615 μA and 60 kV parameters for localization and attenuation, followed by two 30 min static SPECT scans in list mode with an energy window centered around 208 keV. The U-SPECT II software was used to reconstruct data, and the images were decay corrected to the time of injection with PMOD v 3.402 (PMOD Technologies GmbH, Fallanden, Switzerland).
For ex vivo biodistribution studies, the mice were injected with ~3–5 MBq of the ^177Lu-labeled ligand (n = 5). At 1, 4, 24, 72, and 120 h post-injection, the mice were anesthetized with 2% isoflurane, euthanized by CO2 inhalation, and the tissues/organs of interest were […] for radioactivity counting. The blocking study was performed at 1 h pi via co-injection of the ^177Lu-labeled ligand with 100 μg of [D-Phe^6,Leu-NHEt^13,des-Met^14]Bombesin(6–14).

[1] = kidneys, n = 5, read-out: Kidneys uptake
[2] = large intestine, n = 5, read-out: Large intestine uptake
[3] = liver, n = 5, read-out: Liver uptake
[4] = lungs, n = 5, read-out: Lungs uptake
[5] = muscle, n = 5, read-out: Muscle uptake
[6] = pancreas, n = 5, read-out: Pancreas uptake
[7] = small intestine, n = 5, read-out: Small intestine uptake
[8] = spleen, n = 5, read-out: Spleen uptake
[9] = stomach, n = 5, read-out: Stomach uptake
[10] = testes, n = 5, read-out: Testes uptake

**Q.** What does the source list for `CC(C)C[C@@H](CN1CC(F)(F)C[C@H]1C(N)=O)NC(=O)[C@H](Cc1c[nH]cn1)NC(=O)CN(C)C(=O)[C@@H](NC(=O)[C@H](C)NC(=O)[C@H](Cc1c[nH]c2ccccc12)NC(=O)[C@H](CCC(N)=O)NC(=O)[C@@H](Cc1ccccc1)NC(=O)CN1CCC(NC(=O)CN2CCN(CC(=O)O)CCN(CC(=O)O)CCN(CC(=O)O)CC2)CC1)C(C)C` [[^177Lu]Lu-LW02080, metal not drawn]?
**A.** tissue uptake at 120 h (heart, 120 h pi, n = 5, read-out: Heart uptake): 0.01 ± 0.01 %ID/g; tissue uptake at 1 h (kidneys, 100 ug, blocked (100 µg GRPR antagonist co-injected), read-out: Kidneys uptake): 4.17 ± 0.95 %ID/g; tissue uptake at 1 h [1]: 2.65 ± 0.48 %ID/g; tissue uptake at 4 h [1]: 1.88 ± 0.35 %ID/g; tissue uptake at 24 h [1]: 0.89 ± 0.28 %ID/g; tissue uptake at 72 h [1]: 0.26 ± 0.08 %ID/g; tissue uptake at 120 h (kidneys, 120 h pi, n = 5, read-out: Kidneys uptake): 0.12 ± 0.03 %ID/g; tissue uptake at 1 h (large intestine, 100 ug, blocked (100 µg GRPR antagonist co-injected), read-out: Large intestine uptake): 0.21 ± 0.09 %ID/g; tissue uptake at 1 h [2]: 0.17 ± 0.09 %ID/g; tissue uptake at 4 h [2]: 0.34 ± 0.04 %ID/g; tissue uptake at 24 h [2]: 0.15 ± 0.06 %ID/g; tissue uptake at 72 h [2]: 0.06 ± 0.02 %ID/g; tissue uptake at 120 h (large intestine, 120 h pi, n = 5, read-out: Large intestine uptake): 0.02 ± 0.01 %ID/g; tissue uptake at 1 h (liver, 100 ug, blocked (100 µg GRPR antagonist co-injected), read-out: Liver uptake): 0.33 ± 0.08 %ID/g; tissue uptake at 1 h [3]: 0.27 ± 0.1 %ID/g; tissue uptake at 4 h [3]: 0.2 ± 0.08 %ID/g; tissue uptake at 24 h [3]: 0.09 ± 0.01 %ID/g; tissue uptake at 72 h [3]: 0.04 ± 0.01 %ID/g; tissue uptake at 120 h (liver, 120 h pi, n = 5, read-out: Liver uptake): 0.03 ± 0.01 %ID/g; tissue uptake at 1 h (lungs, 100 ug, blocked (100 µg GRPR antagonist co-injected), read-out: Lungs uptake): 0.45 ± 0.22 %ID/g; tissue uptake at 1 h [4]: 0.43 ± 0.04 %ID/g; tissue uptake at 4 h [4]: 0.13 ± 0.08 %ID/g; tissue uptake at 24 h [4]: 0.05 ± 0.03 %ID/g; tissue uptake at 72 h [4]: 0.02 %ID/g; tissue uptake at 120 h (lungs, 120 h pi, n = 5, read-out: Lungs uptake): 0.05 ± 0.03 %ID/g; tissue uptake at 1 h (muscle, 100 ug, blocked (100 µg GRPR antagonist co-injected), read-out: Muscle uptake): 0.15 ± 0.04 %ID/g; tissue uptake at 1 h [5]: 0.06 ± 0.01 %ID/g; tissue uptake at 4 h [5]: 0.01 %ID/g; tissue uptake at 24 h [5]: 0.01 %ID/g; tissue uptake at 1 h (pancreas, 100 ug, blocked (100 µg GRPR antagonist co-injected), read-out: Pancreas uptake): 0.34 ± 0.09 %ID/g; tissue uptake at 1 h [6]: 0.39 ± 0.08 %ID/g; tissue uptake at 4 h [6]: 0.06 ± 0.02 %ID/g; tissue uptake at 24 h [6]: 0.04 ± 0.01 %ID/g; tissue uptake at 72 h [6]: 0.01 %ID/g; tissue uptake at 120 h (pancreas, 120 h pi, n = 5, read-out: Pancreas uptake): 0.01 %ID/g; tissue uptake at 120 h (pancreas, all time points (1, 4, 24, 72, 120 h pi), read-out: pancreas uptake): < 0.5 %ID/g; tissue uptake at 1 h (small intestine, 100 ug, blocked (100 µg GRPR antagonist co-injected), read-out: Small intestine uptake): 0.48 ± 0.18 %ID/g; tissue uptake at 1 h [7]: 0.28 ± 0.03 %ID/g; tissue uptake at 4 h [7]: 0.07 ± 0.03 %ID/g; tissue uptake at 24 h [7]: 0.03 ± 0.01 %ID/g; tissue uptake at 72 h [7]: 0.01 %ID/g; tissue uptake at 120 h (small intestine, 120 h pi, n = 5, read-out: Small intestine uptake): 0.01 %ID/g; tissue uptake at 1 h (spleen, 100 ug, blocked (100 µg GRPR antagonist co-injected), read-out: Spleen uptake): 0.16 ± 0.05 %ID/g; tissue uptake at 1 h [8]: 0.14 ± 0.04 %ID/g; tissue uptake at 4 h [8]: 0.07 ± 0.01 %ID/g; tissue uptake at 24 h [8]: 0.07 ± 0.02 %ID/g; tissue uptake at 72 h [8]: 0.04 ± 0.01 %ID/g; tissue uptake at 120 h (spleen, 120 h pi, n = 5, read-out: Spleen uptake): 0.03 %ID/g; tissue uptake at 1 h (stomach, 100 ug, blocked (100 µg GRPR antagonist co-injected), read-out: Stomach uptake): 0.26 ± 0.14 %ID/g; tissue uptake at 1 h [9]: 0.08 ± 0.04 %ID/g; tissue uptake at 4 h [9]: 0.02 %ID/g; tissue uptake at 24 h [9]: 0.07 ± 0.04 %ID/g; tissue uptake at 72 h [9]: 0.02 ± 0.01 %ID/g; tissue uptake at 120 h (stomach, 120 h pi, n = 5, read-out: Stomach uptake): 0.01 ± 0.01 %ID/g; tissue uptake at 1 h (testes, 100 ug, blocked (100 µg GRPR antagonist co-injected), read-out: Testes uptake): 0.22 ± 0.09 %ID/g; tissue uptake at 1 h [10]: 0.2 ± 0.04 %ID/g; tissue uptake at 4 h [10]: 0.03 ± 0.01 %ID/g; tissue uptake at 24 h [10]: 0.03 ± 0.01 %ID/g; tissue uptake at 72 h [10]: 0.01 %ID/g; tissue uptake at 120 h (testes, 120 h pi, n = 5, read-out: Testes uptake): 0.01 %ID/g
